One series deals with mice. The following applies: intravenous injection in mice; ref Mizugaki and Ito, 2005; cited from earlier work.
Series [1] has as its system spinal nerve–ligated neuropathic rats. The series is described as follows: Acute spinal neurotoxicity (flaccid paralysis and death) after intrathecal injection. The class given is in vivo, rat. The following applies: for LD50 (mortality) / TD50 (for flaccid paralysis): intrathecal bolus, observed 24 h; for Normalized TD50: average of TD50 (paralysis) and LD50. The method, then: (§1) An 18-cm polyethylene catheter (PE-10: 0.28-mm inner diameter and 0.61-mm outer diameter, Clay Adams, Parsippany, NJ, USA) with a volume of 13 μL was inserted into the lumbar level of the spinal cord as described elsewhere under inhalational isoflurane anesthesia (4% for induction and 1% for maintenance) run by an anesthesia meter (Ugo Basile Gas Anesthesia System, Comerio, Italy). Two days after recovery from anesthesia, the placement of the catheter in the spinal cord was verified by administration of 4% lidocaine (10 μL, followed by 15 μL of saline for flushing). Rats that had no motor impairment after placement of the intrathecal catheter were considered for the study, and rats that developed immediate bilateral paralysis of the hindlimbs after intrathecal administration of lidocaine were selected for the study. For intrathecal administration of the control and test articles, 10 μL of each drug was injected with a 50-μL microinjector (Shanghai Anting Micro-Injector Factory, Shanghai, China) and was flushed with 15 μL of normal saline solution.
Survival and abnormal motor-blockade behaviors, including asthma, abdominal breathing, locomotion difficulty, and paralysis, were continuously monitored for 24 h after the treatment, with special attention given during the first 4 h. Paralysis was defined as an inability to negotiate a 60-degree inclined plane ([Durant and Yaksh, 1986]). Death was defined as respiratory arrest over a period of 5 min. The paralysis and mortality rates and their latencies were quantitatively recorded and tabulated.
(§2) The percentage of maximal possible effect (% MPE) was calculated using the following formula: (postdrug threshold in ipsilateral hindlimb – baseline threshold in ipsilateral hindlimb)/(baseline threshold in contralateral hindlimb – baseline threshold in ipsilateral hindlimb) × 100 ([Bowersox et al., 1996]). A % MPE value near 100 indicates normal mechanical thresholds (i.e., near contralateral thresholds), and a value near 0 indicates allodynia. For the dose-response curve analysis, the parameters (i.e., minimum effect; Emax, median effective concentration or dose, or median toxic or lethal dose [EC50, ED50, TD50, or LD50], and Hill coefficient [n]) were calculated from the individual dose-response curves using the Prism program (version 5.01, GraphPad Software, San Diego, CA, USA). To determine the parameters of the dose-response curves, the values of response (Y) were fitted by non-linear least-squares curves to the relation Y = a + bx, where x = [D]^n/(ED50^n + [D]^n), [C]^n/(EC50^n + [C]^n), [D]^n/(TD50^n + [D]^n) or [D]^n/(LD50^n + [D]^n), to give each value of ED50, EC50, TD50, or LD50 and b (Emax) yielding a minimum residual sum of squares of deviations from the theoretical curve ([Wang and Pang, 1993]).

The test system of series [2] is mechanical allodynia in spinal L5/L6 nerve–ligated neuropathic rats. The series is described as follows: Mechanical allodynia (von Frey paw withdrawal threshold) after intrathecal injection in spinal nerve-ligated neuropathic rats. In kind it is in vivo, rat. Conditions: for Blockade of aconitine (100 ng) anti-allodynia / Blockade of benzolyaconine (10 μg) anti-allodynia: intrathecal pretreatment: antiserum 1:10 or nor-BNI 100 μg 0.5 h earlier, minocycline 100 μg 4 h earlier; for Own effect on withdrawal responses in contralateral or ipsilateral paws: compared with saline control. The method, then:
as §1
(§3) To induce hypersensitivity to neuropathic pain, the rats were subjected to spinal nerve ligation as previously described [Kim and Chung (1992)] and [Zhang et al. (2013)]. Unilateral ligation of the L5 and L6 spinal nerves was performed under inhalational isoflurane anesthesia (4% for induction and 1% for maintenance) run by an anesthesia meter (Ugo Basile Gas Anesthesia System). The left L5 and L6 spinal nerves were isolated and tightly ligated with 6-0 silk thread. After ligation, the wound was sutured and the rats were returned to their home cages for recovery. After spinal nerve ligation, only those rats with marked unilateral allodynia to mechanical stimulation (i.e., a hindpaw withdrawal threshold of less than 8 g on the operated side) and with no major impairment were included in the study. Drug testing started 2–4 weeks after spinal nerve ligation.
To evaluate mechanical allodynia, the animals were acclimatized for at least 30 min to the test environment, namely, a plexiglass box on a metal grid (0.5 cm × 0.5 cm). The hindpaw withdrawal threshold was measured with a 2450 CE Electronic von Frey hair (IITC Life Science Inc, Woodland Hill, CA, USA). An electronic handheld transducer with a No. 15 monofilament was applied perpendicularly to the medial surface of the hindpaws with increasing force (ranging from 0.1 to 90 g) until the rat suddenly withdrew or licked the hindpaw. The lowest force that produced a withdrawal response was considered to be the threshold, which was the mean of three repeated measurements made in a 5-min interval.
as §2

Series [3] relates to heat hyperalgesia in spinal L5/L6 nerve–ligated neuropathic rats. The series is described as follows: Heat hyperalgesia (radiant heat paw withdrawal latency) after intrathecal injection in spinal nerve-ligated neuropathic rats. In kind it is in vivo, rat. The method, then: as §1, §3
To assess heat hyperalgesia, the rats were put in a plexiglass box on an elevated glass surface. After an adaptation period of at least 30 min, radiant heat was applied to the plantar medial surface of each hindpaw. The hindpaw withdrawal latency was measured with a Model 390G Plantar Test Analgesia Meter (IITC Life Science Inc.). To prevent tissue damage, the latency cutoff was set at 30 s. The paw withdrawal latency was defined as the time from the onset of radiant heat application to the withdrawal of the hindpaw. Both hindpaws were tested independently three times with a 5-min interval between trials. The result for each test was calculated as the mean of the three repeated measurements.
as §2, with “To determine the parameters of the dose-response curves, the values of response (Y) were fitted by non-linear least-squares curves to the relation Y = a + bx, where x = [D]^n/(ED50^n + [D]^n), [C]^n/(EC50^n + [C]^n), [D]^n/(TD50^n + [D]^n) or [D]^n/(LD50^n + [D]^n), to give each value of ED50, EC50, TD50, or LD50 and b (Emax) yielding a minimum residual sum of squares of deviations from the theoretical curve ([Wang and Pang, 1993]).” left out

For series [4], the system named is prodynorphin gene expression in primary cultures of spinal microglia. The series can be described thus: Prodynorphin gene expression in cultured primary spinal microglia (real-time quantitative PCR). The class given is cell-based, rat. The method, then: Glial cells were isolated from the 1-day-old neonatal rats. The isolated spinal cords were minced and then incubated with trypsin. Dissociated cells were suspended in 75-cm^2 tissue culture flasks (1 × 10^7 cells/flask) precoated with poly-L-lysine and maintained in a 5% CO2 incubator at 37°C. After culture for 10 days, the microglial cells were prepared as floating cell suspensions by shaking the flask at 260 rpm for 2 h. The aliquots were transferred to plates, and the unattached cells were removed by washing with serum-free Dulbecco’s modified Eagle’s medium.
RNA extraction, reverse transcription, and real-time quantitative PCR were performed as previously described ([Chen et al., 2012]). The spinal lumbar enlargements of rats were collected and mechanically homogenized with an electronic microhomogenizer at 4,000 rpm for 10 s in TRIzol on ice. Total RNA from the spinal lumbar enlargements were isolated using TRIzol reagent (Invitrogen, Grand Island, NY, USA). A 1-μg sample of total RNA was reverse-transcribed with a ReverTra Ace qPCR RT-Kit (Toyobo, Japan). Real-time quantitative PCR was carried out with the Mastercycler ep realplex (Eppendorf, Germany) using the RealmasterMix (SYBR Green I) (Toyobo). The fold change was calculated with the 2^-ΔΔCt method after normalization to the gene of gapdh. […]
The percentage of maximal possible effect (% MPE) was calculated using the following formula: (postdrug threshold in ipsilateral hindlimb – baseline threshold in ipsilateral hindlimb)/(baseline threshold in contralateral hindlimb – baseline threshold in ipsilateral hindlimb) × 100 ([Bowersox et al., 1996]). […] For the dose-response curve analysis, the parameters (i.e., minimum effect; Emax, median effective concentration or dose, or median toxic or lethal dose [EC50, ED50, TD50, or LD50], and Hill coefficient [n]) were calculated from the individual dose-response curves using the Prism program (version 5.01, GraphPad Software, San Diego, CA, USA). […]
Primary cultures of microglial cells taken from the spinal cords of the neonatal rats were treated with a variety of concentrations of aconitine (1 × 10^-8, 3 × 10^-8, 1 × 10^-7, 3 × 10^-7, and 1 × 10^-6 M), benzolyaconine (3 × 10^-7, 1 × 10^-6, 3 × 10^-6, 1 × 10^-5, 3 × 10^-5, and 1 × 10^-4 M) and aconine (1 × 10^-4, 3 × 10^-4, 1 × 10^-3, 3 × 10^-3, and 1 × 10^-2 M) for 2 h. As the bulleyaconitine A-increased dynorphin A level measured by the enzyme-linked immunosorbent assay was in parallel with the prodynorphin gene expression in spinal microglia from neonatal and adult rats ([Li et al., 2016]), the expression of the cellular prodynorphin gene encoding dynorphin A was only measured in this study using real-time quantitative PCR. […]

The test system of series [5] is dynorphin A expression in spinal microglia. Conditions: 2016, cited from earlier work; for Effect on dynorphin A level / expression: spinal cord and cultured primary spinal microglia, ref Li et al.
The test system of series [6] is pain hypersensitivity in spinal nerve-ligated neuropathic rats. The series can be described thus: Anti-hypersensitivity, normalized (anti-allodynia and anti-hyperalgesia ED50 averaged). The class given is in vivo, rat. The method, then:
as §2
Table 1 summarizes the ED50 values in mole base for aconitine, benzolyaconine, and aconine to block pain hypersensitivity. Because anti-allodynia and anti-hyperalgesia were closely correlated, their ED50 values were averaged to obtain a normalized ED50 for anti-hypersensitivity. The ED50 ratios for aconitine and benzolyaconine to block mechanical allodynia and heat hyperalgesia were 1:92 and 1:110, with a normalized ED50 ratio of 1:102.

In the next series the test system is neuropathic rats. Set-up: method as in Li et al., 2016. Conditions: ref Li et al., 2016; cited from earlier work.

Structures are written as SMILES. Entries after “also recorded” stand apart in the source; their conditions may differ.

One may read the LD50 as the dose at which mortality reaches 50%. In the case of `CCN1C[C@]2(COC)[C@H](O)C[C@H](OC)[C@]34C1[C@H]([C@H](OC)[C@H]23)[C@]1(O)[C@H]2[C@@H](O)[C@](O)(C[C@H]24)[C@@H](OC)[C@@H]1O` [Aconine, aconine], in the series on mice, the median lethal dose (LD50) is given as 120 mg/kg. In addition, in series [1], the “LD50 (mortality)” value came to 1.7 µmol and the “TD50 (for flaccid paralysis)” value amounted to 1.5 µmol. For the same compound, in series [1] (intrathecal), the “Normalized TD50” value was determined as 1.6 µmol. Further, the “Effect on mechanical allodynia in ipsilateral paws” value in series [2] (intrathecal, up to 300 μg) was “did not produce significant anti-allodynia or anti-hyperalgesia; also recorded: did not alter mechanical allodynia or thermal hyperalgesia”. Further, the “Effect on heat hyperalgesia in ipsilateral paws” value in series [3] (up to 300 μg) is “did not produce significant anti-allodynia or anti-hyperalgesia; also recorded: did not alter mechanical allodynia or thermal hyperalgesia”. For the same compound, the “Effect on prodynorphin gene (dynorphin A) expression” value in series [4] (up to 10 mM, 2 h) was “did not significantly affect prodynorphin gene expression; also recorded: did not significantly stimulate the dynorphin A expression”.

On to `CCN(CC)CC(=O)Nc1c(C)cccc1C` [lidocaine], for which the “Effect on dynorphin A level / expression” value in series [5] is on record as “did not stimulate dynorphin A expression”.

`Oc1ccc2c3c1O[C@H]1c4[nH]c5c(c4C[C@@]4(O)[C@@H](C2)N(CC2CC2)CC[C@]314)C[C@@]1(O)[C@H]2Cc3ccc(O)c4c3[C@@]1(CCN2CC1CC1)[C@H]5O4` [nor-BNI, Nor-binaltorphimine, reference compound]: in series [2], the “Blockade of aconitine (100 ng) anti-allodynia” value is “completely blocked aconitine-induced anti-allodynia” and the “Blockade of benzolyaconine (10 μg) anti-allodynia” value is reported as “completely alleviated benzolyaconine anti-allodynia”. In addition, the “Own effect on withdrawal responses in contralateral or ipsilateral paws” value in series [2] (intrathecal) is “did not affect the withdrawal responses”.

Regarding `C=C1C2CCC3(C4C[C@H]5C6(CCC[C@@]5(C)CN(CC)C46)[C@H]3[C@H]2O)[C@@H]1O` [Bullatine A], the “Effect on dynorphin A expression” value in series [5] (microglia in the spinal cord and cultured primary microglia, ref Huang et al.) is reported as “specifically stimulated dynorphin A expression”.

By EC50 is commonly meant the concentration giving half of the maximal effect. For `CCN1CC2(COC)C(O)CC(OC)C34C5CC6(O)C(OC)C(O)C(O)(C5C6OC(=O)c5ccccc5)C(C(OC)C23)C14` (centres unmarked) [Benzolyaconine, benzoylaconine], in the series with mice, the LD50 was 23 mg/kg. In series [1] (intrathecal), the “Duration of toxic motor-blockade behavior” value was in the range of 5 to 10 min, the “Latency of toxic motor-blockade behavior” value fell in the range of 2 to 3 min and the “Normalized TD50” value was determined as 0.2 µmol. Moreover, in series [1], the “LD50 (mortality)” value worked out at 0.2 µmol and the “TD50 (for flaccid paralysis)” value is 0.2 µmol. The “Anti-allodynic effect in ipsilateral paws” value in series [2] (intrathecal 10 μg) was “marked and reversible anti-allodynia”. The “Emax, blockade of mechanical allodynia” value in series [2] (intrathecal, 1 h after injection) is recorded as 56.4 % MPE. The “ED50, anti-allodynia” value in series [2] (intrathecal, % MPE at 1 h after injection) was determined as 3.6 nmol. The “Effect on withdrawal responses in the contralateral paws” value in series [2] (intrathecal, mechanical and thermal stimuli) is “did not significantly affect the paw withdrawal responses in the contralateral paws”. Further, the “Normalized ED50 for anti-hypersensitivity” value in series [6] (intrathecal, average of allodynia and hyperalgesia ED50) amounted to 3.6 nmol. Besides, the “Normalized ED50 relative to that of aconitine” value in series [6] (times greater than aconitine) was 102 times. In addition, the “Emax, blockade of thermal hyperalgesia” value in series [3] (1 h after injection) turned out to be 100 % MPE. For the same compound, the “ED50, anti-hyperalgesia” value in series [3] (% MPE at 1 h after injection) was determined as 3.5 nmol. For the same compound, the EC50 in series [4] (Rattus norvegicus, primary spinal microglia of neonatal rats, 2 h incubation, read-out: EC50, stimulation of prodynorphin gene (dynorphin A) expression) came out at 3 µM.

Take `CCCCN1CCCCC1C(=O)Nc1c(C)cccc1C` (centres unmarked) [bupivacaine]: in series [5], the “Effect on dynorphin A level / expression” value is “did not stimulate dynorphin A expression”.

As for `CN(C)c1ccc(O)c2c1C[C@H]1C[C@H]3[C@H](N(C)C)C(O)=C(C(N)=O)C(=O)[C@@]3(O)C(O)=C1C2=O` [minocycline, reference compound], in the series on neuropathic rats, the “Effect on antinociceptive effects of bulleyaconitine A” value is recorded as “completely abolished the antinociceptive effects of bulleyaconitine A”. Further, in series [2], the “Blockade of aconitine (100 ng) anti-allodynia” value was “completely prevented” and the “Blockade of benzolyaconine (10 μg) anti-allodynia” value is “completely alleviated benzolyaconine anti-allodynia”. The “Own effect on withdrawal responses in contralateral or ipsilateral paws” value in series [2] (intrathecal) is recorded as “did not affect withdrawal thresholds”.
